According to patent publication US20110027324A1, “O-DESMETHYL-V[…] TREATING MAJOR DEPRESSIVE DISORDER” (Wyeth LLC, priority 2007, published 2011):

What was measured:
Assay type in all cases: in vivo, human
[1] = test system: subjects with a primary diagnosis of MDD; experiment: MDD Study No. 1: efficacy evaluation, randomized double-blind placebo-controlled 8-week study
Protocol: This example describes the results of a multicenter, randomized, double-blind, placebo-controlled, parallel-group study that was designed to evaluate the efficacy and safety of 50 and 100 mg/day ODV for treating MDD.
Subjects were male or female outpatients at least 18 years of age who had depressive symptoms for at least 30 days before the screening visit, and a primary diagnosis of MDD based on the criteria in the Diagnostic and Statistical Manual of Mental Disorders, Fourth edition (DSM-IV), single or recurrent episode, without psychotic features. Minimum screening and baseline scores of 20 on the Hamilton Rating Scale for Depression, 17-item (HAM-D17), of 2 on item 1 (depressed mood) on the HAM-D17, and of 4 on the Clinical Global Impressions Scale-Severity (CGI-S) were also required.
The planned enrollment was 480 subjects. A total of 703 subjects were screened for participation; 229 were screen failures and 474 were randomly assigned to treatment: 159 were assigned to receive placebo, 158 were assigned to receive ODV 50 mg/day; and 157 were assigned to receive ODV 100 mg/day. Twenty-three (23) of these 474 subjects were considered “no-data subjects” (randomized to treatment without information as to treatment). […]
The primary outcome variable was the HAM-D17 total score. The key secondary outcome variable was the Clinical Global Impressions Scale-Improvement (CGI-D score. Other secondary efficacy variables included the CGI-S, the Montgomery and Asberg Depression Rating Scale (MADRS) score, the HAM-D6 (Bech version: HAM-D17 items 1, 2, 7, 8, 10, and 13) score, the Covi Anxiety Scale total score, the remission rate (percentage of subjects with HAM-D17 scores of ≦7), response rates for the HAM-D17 (50% or greater change from baseline in the HAM-D17 total score), MADRS, and CGI-I, and the visual analog scale for pain intensity (VAS-PI). Self-administered health outcomes assessments were measured by the Sheehan Disability Scale (SDS) and the World Health Organization 5-Item Well-Being Index (WHO-5). […]

[2] = test system: subjects with a primary diagnosis of MDD; experiment: MDD Study No. 2: safety evaluation (AEs, DESS, laboratory); conditions: for subjects with AEs as reason for discontinuation: on-therapy period, placebo 3%
Protocol: The safety of the two doses was determined using the same assessments as in Example 1. […] Headache was the only TPAE with an incidence≧5% in the placebo group.
The DESS checklist was used to evaluate symptoms that first occurred, or that worsened, during the taper period (the 7-day period after the end of the double-blind treatment period). During this 7-day period, doses of ODV were tapered to 0 mg for subjects in the 50 mg group, and to 50 mg for subjects in the 100 mg group. The DESS checklist was administered to 420 of the 423 subjects who had completed at least 53 days of on-therapy treatment.

[3] = test system: subjects with a primary diagnosis of MDD; experiment: MDD Study No. 3: efficacy evaluation, randomized double-blind placebo-controlled study; conditions: for CGI-S score, Δ from Baseline: baseline 4.3, placebo −1.10; for HAM-D6, Δ from Baseline: placebo −4.82; for MADRS total score, Δ from Baseline: placebo −11.0
Protocol: This example describes the results of a third multicenter, randomized, double-blind, placebo-controlled, parallel-group study that was also designed to evaluate the efficacy and safety of 50 and 100 mg/day ODV for treating MDD.
Subjects were male or female adults that met the same criteria as the subjects in Example 1. The administration protocols for 50 or 100 mg/day and placebo groups were the same as in Example 1.
The primary and secondary outcomes were the same as in Example 1 as were the statistical methods. A Global F-test was also used to analyze the results. The purpose of this test was to compare the two fixed doses with placebo to control for Type-I error. Statistical significance is met if the p-value for the Global F-test <0.05, followed by un-adjusted pairwise comparison between either dose and placebo at 0.05 significance level.

[4] = all subjects, 50 and 100 mg/day

SMILES: CN(C)CC(c1ccc(O)cc1)C1(O)CCCCC1 (stereo not drawn) [ODV, 1-[2-(dimethylamino)-1-(4-phenol)ethyl]-cyclohexanol]
- HAM-D17 total score, adjusted mean change from baseline ([1]; 50 mg/day, FOT evaluation, ANCOVA LOCF, placebo −9.53): −11.5
- HAM-D17 total score, adjusted mean change from baseline ([1]; 50 mg/day, week 8, mixed-effects model, placebo −9.86): −12.40
- HAM-D17 total score, adjusted mean change from baseline ([1]; 100 mg/day, week 8, mixed-effects model, placebo −9.86): −11.88
- incidence of nausea leading to discontinuation ([2]; 50 mg group): 1.2%
- incidence of sweating leading to discontinuation ([2]; 50 mg group): 1.2%
- incidence of vomiting leading to discontinuation ([2]; 50 mg group): 1.2%
- most common (incidence≧5%) taper/poststudy-emergent AEs ([2]; 50 mg group): headache, nausea, dizziness, and insomnia
- subjects with clinically important elevated SGPT/ALT levels ([2]; 50 mg group): another subject
- p-value, mean DESS scores in comparison with placebo ([2]; 50 mg group, during the 7-day taper period): 0.001
- subjects with clinically important increased total cholesterol levels ([2]; 50 mg group, number of subjects): 1
- subjects with clinically important elevated SGOT/AST levels ([2]; 50 mg group, number of subjects, placebo 1): 1
- subjects with AEs as reason for discontinuation ([2]; 50 mg group): 5%
- incidence of anorgasmia in men leading to discontinuation ([2]; 100 mg group): 2.1%
- incidence of asthenia leading to discontinuation ([2]; 100 mg group): 1.3%
- incidence of headache leading to discontinuation ([2]; 100 mg group): 1.3%
- incidence of nausea leading to discontinuation ([2]; 100 mg group): 3.8%
- most common (incidence≧5%) TPAEs ([2]; 100 mg group): headache, nausea, depression, dizziness, and vertigo
- subjects with AEs as reason for discontinuation ([2]; 100 mg group): 7%
- p-value, mean DESS in comparison with placebo ([2]; 100 mg group, week after the 7-day taper period): 0.017
- SAEs during the on-therapy period [2, 4]: None of the subjects had SAEs during the on-therapy period
- deaths during the study [2, 4]: No deaths occurred during this study
- HAM-D17 total score, Diff. versus Placebo (95% CI) ([3]; 50 mg/day, LOCF): 1.1 (−0.6, 2.7)
- HAM-D17 total score, Diff. versus Placebo (95% CI) ([3]; 50 mg/day, MMRM): 1.4 (−0.0, 2.8)
- HAM-D17 total score, Diff. versus Placebo (95% CI) ([3]; 50 mg/day, OC): 1.8 (−0.1, 3.6)
- CGI-S score, Δ from Baseline ([3]; 50 mg/day): −1.25
- HAM-D6, Δ from Baseline ([3]; 50 mg/day, baseline 12.8): −5.41
- MADRS total score, Δ from Baseline ([3]; 50 mg/day, baseline 30.1): −12.7
- HAM-D17 total score, Diff. versus Placebo (95% CI) ([3]; 100 mg/day, LOCF): 1.8 (0.2, 3.4)
- HAM-D17 total score, Diff. versus Placebo (95% CI) ([3]; 100 mg/day, MMRM): 2.2 (0.7, 3.6)
- HAM-D17 total score, Diff. versus Placebo (95% CI) ([3]; 100 mg/day, OC): 2.9 (1.0, 4.7)
- CGI-S score, Δ from Baseline ([3]; 100 mg/day): −1.44
- HAM-D6, Δ from Baseline ([3]; 100 mg/day, baseline 12.9): −6.15
- MADRS total score, Δ from Baseline ([3]; 100 mg/day, baseline 30.0): −14.4
